In data set [1] the test system is AsPC1 cells. Kind of data set: Cell retention of [18F]rucaparib and [18F]olaparib in AsPC1 cells. In kind it is cell-based, human. To be noted: for Efflux: fraction exiting cells: in the first 10–30 min, biphasic efflux. The procedure: (§1) AsPC1 (1 × 10^5 cells/well) and PSN1 cells (7.5 × 10^4 cells/well) were exposed to [^18F]rucaparib (100 kBq, 4.8 GBq/μmol; [^TotalF]rucaparib final concentration: 258 nM) or [^18F]olaparib (400 kBq, 2.8 GBq/μmol: [^TotalF]olaparib final concentration: 242 nM) in 24-well plates at 37 °C for 30 min. Cell culture medium was removed, and cells were washed with PBS, followed by the addition of fresh medium (300 μL). Cells were then further incubated at 37 °C. Cell culture medium was removed, and cells were washed with PBS at different times (0–3 h). Cells were lysed using RIPA buffer for 15 min at room temperature, and the amount of ^18F in the cell lysates was measured as above.

The subject of data set [2] is PSN1 cells. As to the kind of experiment: Cell retention of [18F]rucaparib and [18F]olaparib in PSN1 cells. In kind it is cell-based, human. To be noted: for Efflux: fraction exiting cells: in the first 10–30 min, biphasic efflux. The procedure: as §1
Data set [3] concerns PSN1 xenografts. Kind of data set: Autoradiography of PSN1 tumour sections. In kind it is in vivo, Balb/c nu/nu mice. To be noted: unlabelled drug 0.5 mg co-administered. The procedure:
Ex vivo localisation of [^18F]rucaparib in PSN1 xenografts was determined using autoradiography of tumour sections (10 μm). Uptake in the same tumour sections was compared to immunohistochemistry staining for PARP1, 2 and 3. Full details of procedures and protocols are provided in Supplemental Information.
PSN1 xenograft tissues were harvested and immediately flash-frozen using liquid nitrogen, and sectioned (10 µm) using a Leica CM1950 cryostat. Tissue sections were thaw-mounted onto Superfrost PLUS glass microscope slides (Menzel-Glaser, Thermo Scientific) and allowed to dry briefly at room temperature (RT). The slides were then fixed in 10% neutral buffered formalin […] (NBF) for 10 min at RT, dried, and exposed to a storage phosphor screen (PerkinElmer, Super Resolution, 12.5 x 25.2 cm) in a standard X-ray cassette for 15 h at 4 °C. The phosphor screen was then imaged using a Cyclone® Plus Storage Phosphor System (PerkinElmer).

The subject of data set [4] is AsPC1 cells. As to the kind of experiment: Protein expression by flow cytometry after PARP inhibitors or DNA-damaging reagents, AsPC1 cells. Format: cell-based, human. As to conditions: 3 h; for Upregulation of PARP proteins / γH2AX expression: 100 μM; for γH2AX expression: not statistically significant in AsPC1 cells. The procedure:
(§2) Relative expression of PARP1, 2 and 3, ALDH2 and IMPDH2 was determined by flow cytometry. Cells (1 × 10^6 cells/well) were seeded in 96-well plates in growth medium, washed with FACS buffer (PBS, 2% FBS, 1 mM EDTA, 0.1% NaN3) and centrifuged at 500×g for 5 min. Immunostaining was performed using the Foxp3/transcription factor staining buffer set (eBioscience^TM, USA). Intracellular staining was conducted in permeabilisation buffer for 30 min at 4 °C in the dark using the following antibodies: AF488-conjugated anti-PARP-1 (1:100; sc-80070), AF594-conjugated anti-PARP-2 (1:100; sc-393310), anti-PARP-3 (1:100; sc-390771) or anti-PARP-tankyrase-1/2 (1:100; sc-365897) from Santa Cruz Biotechnology Inc. (USA), AF488-conjugated anti-IMPDH2 (1:500; ab-200770) from Abcam plc. (UK) and AF488-conjugated anti-ALDH2 (1:100, ABIN6817568) from Antibodies-online GmbH (UK). Fixable viability dye ef780 (1:4000; eBioscience^TM; 65-0865-14) was used for live and dead cells discrimination. Fixation of immunostained cells was performed for 15 min at room temperature. Flow cytometry was conducted on the CytoFLEX benchtop flow cytometer (Beckman Coulter, USA), with appropriate lasers and filters, positive and negative controls. Data were analysed using FlowJo^TM (Tree Star Inc., BD Biosciences, USA).
(§3) AsPC1 (1 × 10^5 cells/well) and PSN1 cells (7.5 × 10^4 cells/well) were exposed to methyl methanesulfonate (MMS) or temozolomide (TMZ) (100 μM, in a total of 270 μL growth medium) for 3 h at 37 °C. Additionally, [^18F]rucaparib (500 kBq, 3.6 GBq/μmol; [^TotalF]rucaparib final concentration: 301 nM) or [^18F]olaparib (400 kBq, 8.5 GBq/μmol; [^TotalF]olaparib final concentration: 300 nM) was added, and the cells were incubated at 37 °C for 30 min. Cell culture medium was removed, and cells were washed with PBS. For cell retention, fresh medium (300 μL) was added to the cells. Cells were then further incubated at 37°C for 3 h. Cell culture medium was removed, and the amount of ^18F in the cell lysates was measured as above. Protein expression of the cells after DNA-damaging treatments (or PARP inhibitors 10 μM) was performed using flow cytometry as above.
A general note: In flow cytometry, cells or beads pass a laser one at a time.

Data set [5] relates to PSN1 cells. As to the kind of experiment: Protein expression by flow cytometry after PARP inhibitors or DNA-damaging reagents, PSN1 cells. To be noted: 3 h; for γH2AX expression / Upregulation of PARP proteins: 100 μM. In kind it is cell-based, human. The procedure:
as §2, §3

For data set [6], the system named is AsPC1 cells. Kind of data set: Uptake and retention of radiolabelled PARP inhibitors in AsPC1 cells treated with DNA-damaging reagents. Format: cell-based, human. As to conditions: 100 μM, 3 h, retention at 3 h. The procedure:
as §3

Data set [7] deals with PSN1 cells. Kind of data set: Uptake and retention of radiolabelled PARP inhibitors in PSN1 cells treated with DNA-damaging reagents. Format: cell-based, human. As to conditions: 100 μM, 3 h, retention at 3 h. The procedure: as §3
On the set-up of data set [8]: method as in PMID 25895168, PMID 26337803, PMID 27689533. To be noted: relatively low tumour uptake; cited from earlier work.
Data set [9] has as its system SW620 cells. Also noted: method as in PMID 24556618. To be noted: cited from earlier work.
On the set-up of data set [10]: method as in PMID 24216281, PMID 26438157. As to conditions: 10 mg/kg, administered orally or intraperitoneally; cited from earlier work.
The test system of data set [11] is pancreatic cancer. To be noted: phase II, pancreatic cancer patients with BRCA1/2 and PALB2 variants; cited from earlier work.
Data set [12] deals with PSN1 xenografts. Also noted: method as in PMID 30389822. As to conditions: cited from earlier work.
Data set [13] has as its system breast cancer xenografts. Also noted: method as in PMID 27841728, PMID 27069769. As to conditions: 1 h post-injection; cited from earlier work.

Structures are written as SMILES.

Consider `O=C(c1cc(Cc2n[nH]c(=O)c3ccccc23)ccc1F)N1CCN(C(=O)C2CC2)CC1` [olaparib], for which the “Efflux: fraction exiting cells” value in data set [1] and in data set [2] was “more than 50%” throughout. For the same compound, the “18F signal of [18F]rucaparib in tumour sections from treated tumours” value in [3] is recorded as “significantly reduced”.

Consider `COS(C)(=O)=O` [MMS, methyl methanesulfonate], for which the “Upregulation of PARP proteins” value in data set [4] (flow cytometry) and in [5] (flow cytometry) was < 10% throughout. Moreover, the γH2AX expression entry in data set [4] and in data set [5] was “increasing trend” throughout. The “Cell association and retention of [TotalF]rucaparib and [TotalF]olaparib after exposure to DNA-damaging reagent” value in [6] and in [7] was “increased” each time.

In the case of `CC1=CC(C)=[N+]2C1=Cc1ccc(CCC(=O)N3CCN(C(=O)c4cc(Cc5n[nH]c(=O)c6ccccc56)ccc4F)CC3)n1[B-]2(F)[18F]` (centres unmarked) [[^18F]PARPi-FL], the Tumour uptake in [8] is given as < 1 %ID/g.

Regarding `Cn1nnc2c(C(N)=O)ncn2c1=O` [TMZ, temozolomide], the “Upregulation of PARP proteins” value in data set [4] (flow cytometry) and in data set [5] (flow cytometry) was < 10% in each case. Also, the γH2AX expression result in data set [4] and in data set [5] was “increasing trend” throughout. The “Cell association and retention of [TotalF]rucaparib and [TotalF]olaparib after exposure to DNA-damaging reagent” value in data set [6] and in data set [7] was “increased” each time.

For the compound `CNCc1ccc(-c2[nH]c3cc(F)cc4c3c2CCNC4=O)cc1` [rucaparib], the “Weighted cellular efflux half-life” value is recorded as 49.9 ± 6.8 min in data set [1] and 43.9 ± 3.2 min in data set [2]. The “Efflux: fraction exiting cells” value in [1] and in data set [2] was “more than 50%” in each case. Moreover, the “PARP1 expression (MFI) after exposure of PARP inhibitors” value in data set [4] (10 μM, flow cytometry) is reported as “upregulated”; in data set [5] (10 μM, flow cytometry), “upregulated”. Further, the “18F signal of [18F]rucaparib in tumour sections from treated tumours” value in data set [3] is “significantly reduced”. Further, the Cellular efflux half-life in data set [9] is recorded as 20 min. Further, in [10], the Blood half-life is 84 to 90 min. In addition, the “Fraction of patients who benefited from treatment” value in data set [11] is listed as “two-thirds”.

`O=C(c1cc(Cc2n[nH]c(=O)c3ccccc23)ccc1[18F])N1CCN(C(=O)C2CC2)CC1` [[^18F]olaparib]: the Tumour uptake in data set [12] (PSN1 xenografts, 1 h post-injection) is reported as 3.16 ± 0.36 %ID/g. The Weighted blood half-life in data set [12] (same xenograft mice) is reported as 32.3 min.

`O=C1NCCn2c(-c3ccc(OCC[18F])cc3)nc3cccc1c32` [[^18F]FTT]: the “Tumour-to-muscle (T/M) ratio” value in [13] is on record as 1.2–1.9.
